Columns and labels:
Progesterone receptor = biological target: T1, Progesterone receptor (Oryctolagus cuniculus, UniProt P06186); experiment: Receptor binding affinity, progesterone receptor (competitive binding, 3H-ORG 2058); conditions: Progesterone = 100%; uterus cytosol of estradiol-primed rabbit
T1 construct: Uterus cytosol of the estradiol-primed rabbit; from tissue; host or cells: uterus cytosol of estradiol-primed rabbit
T1 sequence (P06186 1-930): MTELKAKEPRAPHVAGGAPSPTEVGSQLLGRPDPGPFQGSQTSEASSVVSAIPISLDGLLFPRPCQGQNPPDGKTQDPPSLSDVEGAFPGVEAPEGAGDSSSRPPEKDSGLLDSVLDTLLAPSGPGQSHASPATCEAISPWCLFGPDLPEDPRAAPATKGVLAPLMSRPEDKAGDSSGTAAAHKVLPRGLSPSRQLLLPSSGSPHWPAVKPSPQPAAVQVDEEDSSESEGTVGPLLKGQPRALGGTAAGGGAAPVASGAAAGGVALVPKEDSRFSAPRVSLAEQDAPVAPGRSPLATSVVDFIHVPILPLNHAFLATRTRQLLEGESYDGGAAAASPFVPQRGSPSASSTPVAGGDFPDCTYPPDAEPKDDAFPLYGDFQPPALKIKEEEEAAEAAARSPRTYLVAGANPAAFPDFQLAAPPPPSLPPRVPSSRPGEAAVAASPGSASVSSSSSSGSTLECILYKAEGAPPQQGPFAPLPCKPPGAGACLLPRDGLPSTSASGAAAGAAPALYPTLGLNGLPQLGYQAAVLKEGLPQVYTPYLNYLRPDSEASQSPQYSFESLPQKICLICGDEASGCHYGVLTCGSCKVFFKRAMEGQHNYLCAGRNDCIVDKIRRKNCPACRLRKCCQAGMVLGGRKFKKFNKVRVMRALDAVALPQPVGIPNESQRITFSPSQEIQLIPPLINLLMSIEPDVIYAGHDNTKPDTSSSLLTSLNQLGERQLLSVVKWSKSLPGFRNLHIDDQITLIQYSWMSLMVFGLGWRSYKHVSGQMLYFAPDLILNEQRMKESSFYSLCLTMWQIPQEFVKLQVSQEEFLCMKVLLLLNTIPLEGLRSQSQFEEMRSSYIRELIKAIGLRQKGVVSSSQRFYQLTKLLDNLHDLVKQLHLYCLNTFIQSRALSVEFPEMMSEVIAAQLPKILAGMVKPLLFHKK
Description: (§1) The receptor binding affinity was determined by competitive binding of a specifically binding ^3H-labeled hormone (tracer) and the compound to be tested on receptors in the cytosol from animal target organs. In this case, receptor saturation and reaction equilibrium were sought.
(§2) The tracers and increasing concentrations of the compound to be tested (competitor) were co-incubated with the receptor-containing cytosol fraction at 0-4° C. over 18 hours. After separation of the unbonded tracer with carbon-dextran suspension, the receptor-bonded tracer portion was measured for each concentration, and the IC50 was determined from the concentration sequence. As a quotient of the IC50 values of the reference substance and the compound to be tested (×100%), the relative molar binding affinity (RBA) was calculated (RBA of the reference substance=100%).
Uterus cytosol of the estradiol-primed rabbit; homogenized in TED buffer (20 mmol of Tris/HCl, pH 7.4; 1 mmol of ethylenediamine tetraacetate, 2 mmol of dithiothreitol) with 250 mmol of saccharose; stored at −30° C. Tracer: ^3H-ORG 2058, 5 nmol; reference substance: progesterone.

Androgen receptor = biological target: T2, Androgen receptor (Rattus norvegicus, UniProt P15207); experiment: Receptor binding affinity, androgen receptor (competitive binding, 3H-metribolone); conditions: prostate cytosol of castrated rat; for AR relative molar binding affinity (RBA) a) against RU 1881: reference RU 1881 (metribolone); for AR relative molar binding affinity (RBA) b) against dihydrotestosterone (DHT): reference dihydrotestosterone
T2 construct: Prostate cytosol of the castrated rat; from tissue; host or cells: prostate cytosol of castrated rat
T2 sequence (P15207 1-902): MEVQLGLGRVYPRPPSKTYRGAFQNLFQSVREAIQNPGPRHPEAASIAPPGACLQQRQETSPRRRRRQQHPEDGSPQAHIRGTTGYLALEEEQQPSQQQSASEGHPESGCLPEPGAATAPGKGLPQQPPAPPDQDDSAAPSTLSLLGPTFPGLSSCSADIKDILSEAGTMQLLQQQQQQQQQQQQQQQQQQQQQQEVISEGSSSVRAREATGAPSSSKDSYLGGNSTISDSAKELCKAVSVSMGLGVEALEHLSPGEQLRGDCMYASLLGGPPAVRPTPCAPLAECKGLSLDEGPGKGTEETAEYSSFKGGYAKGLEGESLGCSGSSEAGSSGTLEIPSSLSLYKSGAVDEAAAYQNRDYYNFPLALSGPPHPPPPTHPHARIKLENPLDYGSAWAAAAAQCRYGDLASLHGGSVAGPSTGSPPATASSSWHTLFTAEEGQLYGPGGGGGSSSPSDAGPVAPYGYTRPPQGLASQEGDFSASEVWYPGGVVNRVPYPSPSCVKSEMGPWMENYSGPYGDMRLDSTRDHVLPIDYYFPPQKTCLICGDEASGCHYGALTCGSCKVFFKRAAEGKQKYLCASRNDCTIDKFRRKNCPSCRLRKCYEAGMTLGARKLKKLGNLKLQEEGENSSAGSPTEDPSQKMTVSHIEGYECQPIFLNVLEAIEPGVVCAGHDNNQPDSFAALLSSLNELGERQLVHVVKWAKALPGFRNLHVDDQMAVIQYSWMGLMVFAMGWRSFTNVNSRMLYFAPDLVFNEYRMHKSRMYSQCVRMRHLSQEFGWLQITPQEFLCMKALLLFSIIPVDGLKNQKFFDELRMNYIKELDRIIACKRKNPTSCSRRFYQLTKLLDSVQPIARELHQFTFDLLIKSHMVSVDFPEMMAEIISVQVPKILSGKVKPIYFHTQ
Description: as §1, §2
Prostate cytosol of the castrated rat; prostates stored at −30° C.; buffer: TED with 10% glycerol as well as 2 μmol of triamcinolone acetonide. Tracer: ^3H-metribolone 4 nmol; reference substances: metribolone (RU 1881) or 5α-dihydrotestosterone.

adult female rats = experiment: Nidation-inhibiting test (antifertile effects in the perinidation phase); format: in vivo; conditions: day 5-7 of pregnancy, rat
Description: The determination of the progesterone-antagonistic activities was carried out on adult female rats in the nidation-inhibiting test. The principle of the test is described as follows: progesterone preserves pregnancy in all stages. An early-abortive action can accordingly be expected from competitive progesterone antagonists. Female rats (Schoe strain: WIST Tierzucht GmbH Schönwalde) with a weight of 180-200 g were subjected daily to a cycle control and paired up in proestrus. The beginning of pregnancy was determined by detecting sperm in the vaginal smear on the same day (=day 1 of pregnancy=d1 p.c.). From the 5th-7th day of pregnancy, the test substances were injected subcutaneously daily. On the 9th day, vaginal smears were taken, then the animals were autopsied and the uteri were prepared. The degeneration of implants and pathological, hemorrhagic and otherwise abnormal nidation sites were counted as abortions and are shown in Table 2.

SMILES	PR relative molar binding affinity (RBA) (Progesterone receptor) [%]	AR relative molar binding affinity (RBA) a) against RU 1881 (Androgen receptor)	AR relative molar binding affinity (RBA) b) against dihydrotestosterone (DHT) (Androgen receptor)	Rate of Animals with Complete Inhibition of Nidation (adult female rats; 0.03 mg/animal/day s.c.)	Rate of Animals with Complete Inhibition of Nidation (adult female rats; 0.1 mg/animal/day s.c.)	Rate of Animals with Complete Inhibition of Nidation (adult female rats; 0.3 mg/animal/day s.c.)	Rate of Animals with Complete Inhibition of Nidation (adult female rats; 1.0 mg/animal/day s.c.)	Rate of Animals with Complete Inhibition of Nidation (adult female rats; 3.0 mg/animal/day s.c.)	Rate of Animals with Complete Inhibition of Nidation (adult female rats; 10.0 mg/animal/day s.c.)
CC1(O)CCC2C3CCC4=CC(=O)CCC4=C3C(c3ccc(C=NO)cc3)CC21C (stereo not drawn) [Example 2, 4-(17β-Hydroxy-17α-methyl-3-oxoestra-4,9-dien-11β-yl)benzaldehyde-1(E)-oxime]	95	a) 16%	b) 23%	0/4	0/5	2/5	5/5	–	–
C[C@]12C[C@H](c3ccc(/C=N/O)cc3)C3=C4CCC(=O)C=C4CC[C@H]3[C@@H]1CC[C@@H]2O [Example 1, 4-(17β-Hydroxy-3-oxoestra-4,9-dien-11β-yl)benzaldehyde-1(E)-oxime]	26	a) 17%	b) 24%	–	–	–	0/5	0/5	5/5

Source: US7550451B2, “Progesterone receptor modulators with increased antigonadotropic activity for female birth control and hormone replacement therapy” (Bayer Schering Pharma AG, priority 2002, dated 2009)
